Measurements: PubChem BioAssay AID743472 (Broad Institute, 2014)
“And” between values parts separate entries of the source, which are not always exact repeats. Equal values may be shown once. The source made the active and inactive calls.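 Rule for the calls: active = fitted curve drops past -35% activity change at a concentration no higher than twice the top valid tested dose; inconclusive = no clear call, values can overlap the other calls; inactive = the rest, including activity opposite to the expected direction.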

Tests used:
[1] = system: A549 viability, CellTiter-Glo ATP luminescence, 72 h; assay: A549 cell cytotoxicity, dose response, cytotoxicity control, luminescence, dry powder, set 12 (AID 743472)
[2] = as above; details: A549 viability, CellTiter-Glo ATP luminescence, 72 h

## COc1ccc(C2=Nn3c(nnc3-c3ccccc3F)SC2)cc1OC
[1]
  AC35: 6.11 µM

## Cc1nc(Nc2ncc(C(=O)Nc3c(C)cccc3Cl)s2)cc(N2CCN(CCO)CC2)n1
[1]
  AC35: 12.2 µM

## Cc1cc(Nc2cc(N3CCN(C)CC3)nc(Sc3ccc(NC(=O)C4CC4)cc3)n2)n[nH]1
[1]
  AC35: 10.2 µM

## COc1ccccc1S(=O)(=O)N1CC[C@@H]2[C@@H](CO)Nc3ccc(-c4ccc(C#N)cc4)cc3[C@@H]21
[1]
  AC35: 22.6 µM

## COc1ccc(S(=O)(=O)N2CC[C@@H]3[C@@H](CO)N(C)c4ccc(-c5ccc(F)cc5)cc4[C@@H]32)cc1
[1]
  AC35: 7.15 µM

## N#CC1=C(N)Oc2cc(N)ccc2C1c1ccc(Cl)cc1 (stereo not drawn)
[2]; at 26 µM (top of the series)
  activity change, negative = cytotoxicity: -4.23% (inactive)

## COc1ccc(OC)c(-c2nnc3n2N=C(c2ccc(OC)c(OC)c2)CS3)c1
[1]
  AC35: 0.192 µM and 0.123 µM

## COc1ccc(-c2ccc3c(c2)[C@H]2[C@H](CCN2S(=O)(=O)c2ccc(OC)cc2)[C@@H](CO)N3C)cc1
[1]
  AC35: 9.11 µM

## COC(=O)c1ccc(C2C(C#N)=C(N)Oc3cc(N)ccc32)cc1 (stereo not drawn)
[2]; at 26 µM (top of the series)
  activity change, negative = cytotoxicity: 4.1% (inactive)

## CC(C)N1c2ccccc2C(c2ccc(F)cc2)C1/C=C/C(O)CC(O)CC(=O)O (stereo not drawn)
[1]
  AC35: 23.9 µM

## Nc1ncnc2c1c(-c1cccc(OCc3ccccc3)c1)cn2C1CC(CN2CCCC2)C1 (stereo not drawn)
[1]
  AC35: 13.7 µM

## C=C([C@@H](O)[C@@H](C)O)[C@@H](OC)[C@]1(C)Cc2cc3cc(O[C@H]4CC(OC5CC(O)C(O)C(C)O5)C(O)C(C)O4)cc(O)c3c(O)c2C(=O)[C@H]1OC1CC(OC2CC(OC3CC(C)(O)C(O)C(C)O3)C(O)C(C)O2)C(O)C(C)O1 (stereo partly drawn)
[1]
  AC35: 0.111 µM

## CN1c2ccc(-c3ccc(C#N)cc3)cc2[C@H]2[C@H](CCN2S(=O)(=O)c2cccc(F)c2)[C@H]1CO
[1]
  AC35: 6.56 µM

## COc1ccc(C2=Nn3c(nnc3-c3ccccc3)SC2)cc1OC
[2]; at 26 µM (top of the series)
  activity change, negative = cytotoxicity: -5.8% (inactive)

## N#CC1=C(N)Oc2cc(N)ccc2C1c1ccccc1 (stereo not drawn)
[1]
  AC35: 22.9 µM

## COc1ccc(-c2cc(NC=O)c3ncc(-c4ccc(OC)c(OC)c4)n3c2)cc1
[1]
  AC35: 1.18 µM

## COc1cc(C2C(C#N)=C(N)Oc3cc(N(C)C)ccc32)cc2c1OCO2 (stereo not drawn)
[1]
  AC35: 0.0402 µM

## COc1ccc(S(=O)(=O)N2CC[C@@H]3[C@@H](CO)Nc4ccc(-c5ccc(C#N)cc5)cc4[C@@H]32)cc1
[1]
  AC35: 9.8 µM

## Clc1ccccc1-c1nnc2n1N=C(c1ccc3c(c1)OCO3)CS2
[1]
  AC35: 0.945 µM

## COc1cccc(C2C(C#N)=C(N)Oc3cc(N)ccc32)c1 (stereo not drawn)
[1]
  AC35: 4.76 µM

## C[C@@]1(C(=O)Nc2ccc(F)nc2)CCCN1c1nc(Nc2cc(C3CC3)[nH]n2)c2cccn2n1
[1]
  AC35: 3.48 µM

## CC[C@]1(O)CC2CN(CCc3c([nH]c4ccccc34)[C@@](C(=O)OC)(c3cc4c(cc3OC)N(C=O)[C@H]3[C@@](O)(C(=O)OC)[C@H](OC(C)=O)[C@]5(CC)C=CCN6CC[C@]43[C@@H]65)C2)C1 (stereo partly drawn)
[1]
  AC35: 0.285 µM

## N#Cc1ccc(-c2ccc3c(c2)[C@H]2[C@H](CCN2S(=O)(=O)c2ccccc2F)[C@@H](CO)N3)cc1
[1]
  AC35: 17 µM

## COc1ccc(C2CNC(=O)C2)cc1OC1CCCC1 (stereo not drawn)
[2]; at 26 µM (top of the series)
  activity change, negative = cytotoxicity: 3.58% (inactive)

## COc1ccc(-c2cc(NC(C)=O)c3ncc(-c4ccc(OC)c(OC)c4)n3c2)cc1
[1]
  AC35: 29.9 µM

## Cn1cc(-c2ccncc2)c(-c2ccc(OCc3ccc4ccccc4n3)cc2)n1
[1]
  AC35: 19.3 µM

## COc1ccc(CNc2nc(N3CCC[C@H]3CO)ncc2C(=O)NCc2ncccn2)cc1Cl
[2]; at 26 µM (top of the series)
  activity change, negative = cytotoxicity: -5.08% (inactive)

## CCC(C)(C)C(=O)O[C@H]1C[C@@H](C)C=C2C=C[C@H](C)[C@H](CC[C@@H]3C[C@@H](O)CC(=O)O3)[C@H]21
[2]; at 26 µM (top of the series)
  activity change, negative = cytotoxicity: 2.27% (inactive)

## Cc1ccc(C2C(C#N)=C(N)Oc3cc(N)ccc32)cc1 (stereo not drawn)
[2]; at 26 µM (top of the series)
  activity change, negative = cytotoxicity: 2.98% (inactive)

## CCc1c2c(nc3ccc(O)cc13)-c1cc3c(c(=O)n1C2)COC(=O)C3(O)CC (stereo not drawn)
[1]
  AC35: 0.579 µM

## Cc1ccccc1C1C(C#N)=C(N)Oc2cc(N)ccc21 (stereo not drawn)
[2]; at 26 µM (top of the series)
  activity change, negative = cytotoxicity: -2.49% (inactive)

## CN(C(=O)CCCOc1ccc2[nH]c(=O)ccc2c1)C1CCCCC1
[2]; at 26 µM (top of the series)
  activity change, negative = cytotoxicity: -2.41% (inactive)

## O=C(Nc1c(Cl)cncc1Cl)c1ccc(OC(F)F)c(OCC2CC2)c1
[2]; at 26 µM (top of the series)
  activity change, negative = cytotoxicity: 2.06% (inactive)

## COc1ccc(S(=O)(=O)N2CC[C@@H]3[C@H](CO)Nc4ccc(-c5ccc(C#N)cc5)cc4[C@@H]32)cc1
[1]
  AC35: 10.7 µM

## N#CC1=C(N)Oc2cc(N)ccc2C1c1cccc(F)c1 (stereo not drawn)
[1]
  AC35: 10.8 µM

## CC(C)(O)CCc1ccc(O)c2c(=O)c3c(O)c4c(cc3oc12)O[C@H]1OC=C[C@@]41O
[2]; at 13.5 µM (top of the series)
  activity change, negative = cytotoxicity: -4.12% (inactive)

## COc1ccccc1-c1nnc2n1N=C(c1ccc(O)c(O)c1)CS2
[1]
  AC35: 0.314 µM

## Cc1c([C@H](C(Cl)Cl)[C@H](O)[C@H]2C[C@H](C)C(=O)O2)ccc2c1C(=O)[C@H]1[C@H]2C[C@@H](Br)[C@@]23O[C@@H](CO[C@H]2O)C[C@]13C
[1]
  AC35: 3.44 µM

## COc1cc(Nc2ncc3c(n2)-c2ccc(Cl)cc2C(c2c(F)cccc2OC)=NC3)ccc1C(=O)O
[2]; at 26 µM (top of the series)
  activity change, negative = cytotoxicity: -19.8% (inactive)

## N#CC1=C(N)Oc2cc(N)ccc2C1c1ccccc1Cl (stereo not drawn)
[1]
  AC35: 32.9 µM

## N#CC1=C(N)Oc2cc(N)ccc2C1c1cccc(Br)c1 (stereo not drawn)
[1]
  AC35: 0.488 µM

## C[C@]1(c2nc3c(C(N)=O)cccc3[nH]2)CCCN1
[2]; at 26 µM (top of the series)
  activity change, negative = cytotoxicity: 8.64% (inactive)

## COc1ccc(S(=O)(=O)N2CC[C@@H]3[C@@H](CO)Nc4ccc(-c5cccc(C#N)c5)cc4[C@@H]32)cc1
[1]
  AC35: 13.2 µM

## N#CC1=C(N)Oc2cc(N)ccc2C1c1ccc2ccccc2c1 (stereo not drawn)
[1]
  AC35: 28.4 µM

## N#CC1=C(N)Oc2ccc3ccccc3c2C1c1cccc(F)c1 (stereo not drawn)
[1]
  AC35: 3.88 µM

## CN1c2ccc(-c3ccc(C#N)cc3)cc2[C@H]2[C@H](CCN2S(=O)(=O)c2ccc(F)cc2)[C@H]1CO
[2]; at 26 µM (top of the series)
  activity change, negative = cytotoxicity: 10.6% (inactive)

## COc1cccc2c1C(=O)c1c(O)c3c(c(O)c1C2=O)C[C@@](O)(C(=O)CO)C[C@@H]3O[C@H]1C[C@H](N)[C@H](O)[C@H](C)O1
[1]
  AC35: 0.333 µM

## CC1(C)CC(c2nc(-c3ccc4ccc(-c5ccccc5)nc4c3)c3c(N)nccn23)C1
[2]; at 26 µM (top of the series)
  activity change, negative = cytotoxicity: -21.6% (inactive)

## N#CC1=C(N)Oc2cc(OC(=O)c3ccccc3)ccc2C1c1cccc(Br)c1 (stereo not drawn)
[1]
  AC35: 19.4 µM

## Cc1ccc([N+](=O)[O-])cc1S(=O)(=O)N(C)C
[2]; at 26 µM (top of the series)
  activity change, negative = cytotoxicity: -2.86% (inactive)

## COc1ccc(-c2ccc3c(c2)[C@H]2[C@H](CCN2S(=O)(=O)c2ccc(OC)cc2)[C@@H](CO)N3)cc1
[1]
  AC35: 12.5 µM

## COc1ccc(C2=Nn3c(nnc3-c3ccccc3OC)SC2)cc1OC
[1]
  AC35: 0.205 µM

## CCOC(=O)CCNc1cc(N2CCc3ccccc3CC2)nc(-c2ccccn2)n1
[1]
  AC35: 37.2 µM

## COc1cc([C@@H]2c3cc4c(cc3[C@@H](O[C@@H]3O[C@@H]5CO[C@@H](C)O[C@H]5[C@H](O)[C@H]3O)[C@H]3COC(=O)[C@H]23)OCO4)cc(OC)c1O
[2]; at 1.35 µM (top of the series)
  activity change, negative = cytotoxicity: -9.02% (inactive)

## CN1CCN(CCOc2cc(OC3CCOCC3)c3c(Nc4c(Cl)ccc5c4OCO5)ncnc3c2)CC1
[1]
  AC35: 26.1 µM

## COc1ccc(C2=Nn3c(nnc3-c3ccccc3Cl)SC2)cc1OC
[1]
  AC35: 3.06 µM

## O=P1(NCCCl)OCCCN1CCCl (stereo not drawn)
[2]; at 50 µM (top of the series)
  activity change, negative = cytotoxicity: 1.11% (inactive)

## CCC(C)C(=O)OC1CC(C)C=C2C=CC(C)C(CCC(O)CC(O)CC(=O)O)C21 (stereo not drawn)
[2]; at 100 µM (top of the series)
  activity change, negative = cytotoxicity: -13.1% (inactive)

## COc1ccc(S(=O)(=O)N(C(C)=O)c2ccc(OC(C)=O)c3ccccc23)cc1[N+](=O)[O-]
[2]; at 26 µM (top of the series)
  activity change, negative = cytotoxicity: -4.12% (inactive)

## COc1ccccc1-c1nnc2n1N=C(c1ccc3c(c1)OCO3)CS2
[1]
  AC35: 0.102 µM

## N#Cc1ccc(-c2ccc3c(c2)[C@H]2[C@H](CCN2S(=O)(=O)c2cccc(F)c2)[C@@H](CO)N3)cc1
[1]
  AC35: 21.4 µM

## COc1ccc(C2C(C#N)=C(N)Oc3cc(N)ccc32)cc1 (stereo not drawn)
[2]; at 26 µM (top of the series)
  activity change, negative = cytotoxicity: 0.547% (inactive)

## N#CC1=C(N)Oc2cc(N)ccc2C12C(=O)Nc1ccc(Br)cc12 (stereo not drawn)
[2]; at 26 µM (top of the series)
  activity change, negative = cytotoxicity: -0.931% (inactive)

## COc1cccc(S(=O)(=O)N2CC[C@@H]3[C@@H](CO)Nc4ccc(-c5ccc(C#N)cc5)cc4[C@@H]32)c1
[1]
  AC35: 26.4 µM

## Nc1ccn([C@@H]2O[C@H](CO)[C@H](O)C2O)c(=O)n1 (stereo partly drawn)
[1]
  AC35: 0.686 µM

## Cc1cccc(C2C(C#N)=C(N)Oc3cc(N)ccc32)c1 (stereo not drawn)
[1]
  AC35: 3.89 µM

## CCN(CCO)CCCOc1ccc2c(Nc3cc(CC(=O)Nc4cccc(F)c4)[nH]n3)ncnc2c1
[2]; at 1.6 µM (top of the series)
  activity change, negative = cytotoxicity: -5.27% (inactive)

## CN(C)c1ccc2c(c1)OC(N)=C(C#N)C2c1cccc(F)c1 (stereo not drawn)
[1]
  AC35: 0.0738 µM

## Cc1ccc(S(=O)(=O)N2CC[C@@H]3[C@@H](CO)Nc4ccc(-c5ccc(C#N)cc5)cc4[C@@H]32)cc1
[2]; at 26 µM (top of the series)
  activity change, negative = cytotoxicity: -24.8% (inactive)

## COc1ccccc1C1C(C#N)=C(N)Oc2cc(N)ccc21 (stereo not drawn)
[2]; at 26 µM (top of the series)
  activity change, negative = cytotoxicity: 3.41% (inactive)

## O=C(Cc1ccc(-c2ccc(OCCN3CCOCC3)cc2)cn1)NCc1ccccc1
[1]
  AC35: 0.0854 µM

## COc1ccc(C(=O)CC2(O)C(=O)Nc3c(Cl)ccc(Cl)c32)cc1 (stereo not drawn)
[1]
  AC35: 5.48 µM

## N#CC1=C(N)Oc2cc3c(cc2C1c1cccc(Br)c1)OCO3 (stereo not drawn)
[1]
  AC35: 0.0624 µM

## N#CC1=C(N)Oc2cc(O)ccc2C1c1cccc(Br)c1 (stereo not drawn)
[1]
  AC35: 11.4 µM

## O=C(c1cc(Cc2n[nH]c(=O)c3ccccc23)ccc1F)N1CCN(C(=O)C2CC2)CC1
[2]; at 110 µM (top of the series)
  activity change, negative = cytotoxicity: -14.2% (inactive)

## COc1ccc(NC(=O)Nc2ccc3c(c2)C(=O)N([C@@H](C)CO)C[C@H](C)[C@H](CN(C)Cc2ccc4c(c2)OCO4)O3)cc1
[2]; at 12 µM (top of the series)
  activity change, negative = cytotoxicity: -11.8% (inactive)

## CC[C@@]1(O)C(=O)OCc2c1cc1n(c2=O)Cc2cc3c(CN(C)C)c(O)ccc3nc2-1
[2]; at 3 µM (top of the series)
  activity change, negative = cytotoxicity: -28% (inactive)

## Clc1ccc(-c2cnc3ccc(-c4ccccc4)cn23)cc1
[2]; at 6 µM (top of the series)
  activity change, negative = cytotoxicity: 9.24% (inactive)
